Experimental data as given in ChEMBL document CHEMBL1201862, “PubChem BioAssay data set” (2004).
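Assay format: 96-well plates, 48-hour exposure. Abbreviation: GI50, concentration required for 50% inhibition of growth.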 Activity calls are given as the source filed them. Cut-off read from the data, not from the text of the source: active = GI50 up to about 1.1 µM and inactive = higher.

Assays:
Experiment in all cases: NCI anticancer screen, dose series, 48 h
A549 = system: A549
CAKI-1 = system: CAKI-1
DMS-114 = system: DMS-114
HT-29 = system: HT-29
IGROV-1 = system: IGROV-1
K562 = system: K562
M14 = system: M14
Malme-3M = system: Malme-3M
NCI-H226 = system: NCI-H226
NCI-H23 = system: NCI-H23
NCI-H460 = system: NCI-H460
NCI-H522 = system: NCI-H522
SK-MEL-2 = system: SK-MEL-2
UACC-257 = system: UACC-257
UO-31 = system: UO-31
BT-549 = system: BT-549
DU-145 = system: DU-145
Hs-578T = system: Hs-578T
MCF7 = system: MCF7
NCI/ADR-RES = system: NCI/ADR-RES

Measured: GI50

COC(=O)C12C3C4C5(C(=O)OC)C(C1C35C(=O)N(C(C)C)C(C)C)C42C(=O)N(C(C)C)C(C)C (centres undefined)
inactive: A549 > 45.9 µM | CAKI-1 > 50 µM | DMS-114 > 29.9 µM | HT-29 > 50 µM | IGROV-1 > 50 µM | K562 > 47.4 µM | M14 > 50 µM | Malme-3M > 50 µM | NCI-H226 > 50 µM | NCI-H23 > 50 µM | NCI-H460 > 37.6 µM | NCI-H522 > 47.2 µM | SK-MEL-2 > 50 µM | UACC-257 > 50 µM | UO-31 > 50 µM

O=C(Nc1ccc(Cl)cc1)c1cccc([N+](=O)[O-])c1O
inactive: A549 3.65 µM | CAKI-1 3.19 µM | DMS-114 3.1 µM | HT-29 4.25 µM | IGROV-1 3.03 µM | K562 2.58 µM | M14 3.63 µM | Malme-3M 1.37 µM | NCI-H226 2.33 µM | NCI-H23 2.43 µM | NCI-H460 2.1 µM | NCI-H522 1.98 µM | SK-MEL-2 2.02 µM | UACC-257 2.24 µM | UO-31 1.98 µM

COc1ccc(C=C2C(=O)OC(C)(C)OC2=O)cc1OC
inactive: A549 > 100 µM | CAKI-1 > 100 µM | DMS-114 > 100 µM | HT-29 > 100 µM | IGROV-1 > 100 µM | K562 > 100 µM | M14 > 100 µM | Malme-3M > 100 µM | NCI-H23 > 100 µM | NCI-H460 > 100 µM | NCI-H522 > 100 µM | SK-MEL-2 > 100 µM | UACC-257 > 100 µM | UO-31 > 100 µM

CCOC(=O)C1Sc2ccccc2N=C1C (centres undefined)
inactive: A549 > 100 µM | DMS-114 > 100 µM | HT-29 > 100 µM | IGROV-1 > 100 µM | K562 > 100 µM | Malme-3M > 100 µM | NCI-H226 > 100 µM | NCI-H23 > 100 µM | NCI-H460 > 100 µM | NCI-H522 > 100 µM | SK-MEL-2 > 100 µM | UACC-257 > 100 µM | UO-31 > 100 µM

O=c1c(O)c(-c2ccc(O)c(O)c2)oc2cc(O)cc(O)c12 [QUERCETIN]
inactive: A549 > 100 µM | CAKI-1 > 100 µM | DMS-114 36.5 µM | IGROV-1 59.3 µM | K562 67.8 µM | M14 > 100 µM | Malme-3M > 100 µM | NCI-H460 36.6 µM | NCI-H522 84.3 µM | SK-MEL-2 88.5 µM | UACC-257 > 100 µM | UO-31 77.1 µM

O=C1CC23CCCCCCCCCCC2(C1)CC(=O)C3 (centres undefined)
inactive: A549 30 µM | DMS-114 26.7 µM | HT-29 18.1 µM | IGROV-1 25.7 µM | K562 27.5 µM | M14 16.6 µM | Malme-3M 24.6 µM | NCI-H226 26.5 µM | NCI-H23 32.1 µM | NCI-H460 34.7 µM | NCI-H522 18.6 µM | SK-MEL-2 19.5 µM | UACC-257 34.8 µM | UO-31 20.8 µM

Cc1ccc(NC(=O)C(=O)Cc2nc3ccccc3o2)c(C)c1
inactive: A549 > 100 µM | CAKI-1 > 100 µM | DMS-114 > 100 µM | HT-29 > 100 µM | IGROV-1 > 100 µM | K562 > 100 µM | M14 > 100 µM | Malme-3M > 100 µM | NCI-H226 > 100 µM | NCI-H23 > 100 µM | NCI-H460 > 100 µM | SK-MEL-2 > 100 µM | UACC-257 > 100 µM | UO-31 > 100 µM

CCCN(CCC)C(=O)Cc1c2n(c3ccccc13)CCCc1ccccc1-2
inactive: A549 13.8 µM | CAKI-1 14.8 µM | DMS-114 11.7 µM | HT-29 13.2 µM | K562 12.5 µM | M14 13.5 µM | Malme-3M 13.9 µM | NCI-H226 15.1 µM | NCI-H23 13 µM | NCI-H460 15.6 µM | NCI-H522 12.6 µM | SK-MEL-2 13.1 µM | UACC-257 13.9 µM | UO-31 14.1 µM

COCCNC(=O)C1C(=O)C(=O)N(CCOC)C1=O (centres undefined)
inactive: A549 > 100 µM | CAKI-1 > 100 µM | DMS-114 > 100 µM | HT-29 > 100 µM | IGROV-1 > 100 µM | K562 > 100 µM | M14 > 100 µM | Malme-3M > 100 µM | NCI-H226 > 100 µM | NCI-H23 > 100 µM | NCI-H522 > 100 µM | SK-MEL-2 > 100 µM | UACC-257 > 100 µM | UO-31 > 100 µM

O=C(CCc1n[nH]c(=S)o1)Nc1cc(Cl)c(Cl)cc1Cl
inactive: A549 67.8 µM | CAKI-1 27.2 µM | DMS-114 41.3 µM | HT-29 25.8 µM | IGROV-1 34.6 µM | K562 18.9 µM | M14 83.6 µM | Malme-3M > 100 µM | NCI-H226 66.4 µM | NCI-H23 > 100 µM | NCI-H460 46.6 µM | NCI-H522 71.9 µM | UACC-257 > 100 µM | UO-31 68.2 µM

CC(C)CC(NC(=O)OC(C)(C)C)C(=O)Nc1ccc(Nc2nc(F)nc(-c3c4ccccc4c4n3CCS4)n2)cc1 (centres undefined)
inactive: A549 48.4 µM | CAKI-1 18.2 µM | DMS-114 20.1 µM | HT-29 19.2 µM | IGROV-1 24 µM | K562 26.8 µM | M14 20.2 µM | Malme-3M 21.2 µM | NCI-H23 18.7 µM | NCI-H460 14.8 µM | NCI-H522 15.3 µM | SK-MEL-2 18.2 µM | UACC-257 23.6 µM | UO-31 19.7 µM

CCOc1ccc([Se][Se]c2ccc(OCC)cc2)cc1
inactive: A549 > 100 µM | CAKI-1 21 µM | DMS-114 20.7 µM | IGROV-1 94.4 µM | M14 > 100 µM | Malme-3M > 100 µM | NCI-H226 44.2 µM | NCI-H23 11.5 µM | NCI-H460 > 100 µM | NCI-H522 46 µM | SK-MEL-2 > 100 µM | UO-31 27.5 µM

O=C1CCC2CCc3cccc4oc1c2c34 (centres undefined)
inactive: A549 > 100 µM | CAKI-1 > 100 µM | DMS-114 > 100 µM | HT-29 > 100 µM | IGROV-1 > 100 µM | K562 > 100 µM | M14 > 100 µM | NCI-H23 > 100 µM | NCI-H460 > 100 µM | UACC-257 > 100 µM

Cc1cccc2oc3c(CC(=O)O)cccc3c(=O)c12
inactive: A549 > 100 µM | BT-549 > 100 µM | CAKI-1 > 100 µM | DU-145 > 100 µM | HT-29 > 100 µM | Hs-578T > 100 µM | IGROV-1 > 100 µM | K562 > 100 µM | M14 > 100 µM | MCF7 > 100 µM | Malme-3M > 100 µM | NCI-H226 > 100 µM | NCI-H23 > 100 µM | NCI-H460 > 100 µM | NCI-H522 > 100 µM | NCI/ADR-RES > 100 µM | SK-MEL-2 5.16 µM | UACC-257 > 100 µM | UO-31 > 100 µM
